Test results taken from PubChem BioAssay AID2060625 (Molecular Pharmacology Branch, DTP, NCI, 2025).
“And” between values parts separate entries of the source, which are not always exact repeats. Equal entries are not always repeated.

System: 186277-243-T-J2-PDC spheroids with HUVEC/MSC, viability
Test: Anticancer human tumor 186277-243-T-J2-PDC patient-derived colon adenocarcinoma cell line growth inhibition [CLK]
Conditions: for viability, T/C: stronger effect = lower value; active means viability on the fitted dose curve at most 10% of control; inactive means the rest
Summary of the method: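 Patient-derived tumor cells grown as complex spheroids with HUVEC endothelial cells and mesenchymal stem cells, treated with drug combinations. Concentrations descend in half-log steps from near clinical Cmax, or from 10 microM if Cmax unknown.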
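Further: compound exposure lasted seven days before readout.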
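Wherever viability, T/C is given: 100% = DMSO vehicle control wells.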

O=C(c1cc(Cc2n[nH]c(=O)c3ccccc23)ccc1F)N1CCN(C(=O)C2CC2)CC1 + CNC(=O)c1ccc(Nc2nc(OC3CCCC3)c3c(-c4ccc5nc(C)oc5c4)c[nH]c3n2)c(OC)c1
> 10 µM: IC50 (curve of first compound, second compound 0.0316 µM) | IC50 (curve of first compound, second compound 0.1 µM) | IC50 (curve of first compound, second compound 0.316 µM)
< 0.0316 µM: IC50 (curve of first compound, second compound 1 µM) | IC50 (curve of first compound, second compound 3.16 µM) | IC50 (curve of first compound, second compound 10 µM)
inactive: viability, T/C (second compound 0.0316 µM, first compound 0.0316 µM) 129% | viability, T/C (second compound 0.0316 µM, first compound 0.1 µM) 119% | viability, T/C (second compound 0.0316 µM, first compound 0.316 µM) 113% | viability, T/C (second compound 0.0316 µM, first compound 1 µM) 109% | viability, T/C (second compound 0.0316 µM, first compound 3.16 µM) 115% | viability, T/C (second compound 0.0316 µM, first compound 10 µM) 120% | viability, T/C (second compound 0.1 µM, first compound 0.0316 µM) 88.7% | viability, T/C (second compound 0.1 µM, first compound 0.1 µM) 81.7% | viability, T/C (second compound 0.1 µM, first compound 0.316 µM) 88.3% | viability, T/C (second compound 0.1 µM, first compound 1 µM) 81.2% | viability, T/C (second compound 0.1 µM, first compound 3.16 µM) 83.1% | viability, T/C (second compound 0.1 µM, first compound 10 µM) 84.1% | viability, T/C (second compound 0.316 µM, first compound 0.0316 µM) 55.8% | viability, T/C (second compound 0.316 µM, first compound 0.1 µM) 52.3% | viability, T/C (second compound 0.316 µM, first compound 0.316 µM) 55.4% | viability, T/C (second compound 0.316 µM, first compound 1 µM) 56.7% | viability, T/C (second compound 0.316 µM, first compound 3.16 µM) 57.3% | viability, T/C (second compound 0.316 µM, first compound 10 µM) 57.6% | viability, T/C (second compound 1 µM, first compound 0.0316 µM) 39.5% | viability, T/C (second compound 1 µM, first compound 0.1 µM) 39.7% | viability, T/C (second compound 1 µM, first compound 0.316 µM) 41.7% | viability, T/C (second compound 1 µM, first compound 1 µM) 37.7% | viability, T/C (second compound 1 µM, first compound 3.16 µM) 41.8% | viability, T/C (second compound 1 µM, first compound 10 µM) 43.9% | viability, T/C (second compound 3.16 µM, first compound 0.0316 µM) 36.8% | viability, T/C (second compound 3.16 µM, first compound 0.1 µM) 36.6% | viability, T/C (second compound 3.16 µM, first compound 0.316 µM) 34.9% | viability, T/C (second compound 3.16 µM, first compound 1 µM) 36.7% | viability, T/C (second compound 3.16 µM, first compound 3.16 µM) 38.1% | viability, T/C (second compound 3.16 µM, first compound 10 µM) 39.6% | viability, T/C (second compound 10 µM, first compound 0.0316 µM) 37.7% | viability, T/C (second compound 10 µM, first compound 0.1 µM) 37.5% | viability, T/C (second compound 10 µM, first compound 0.316 µM) 37.9% | viability, T/C (second compound 10 µM, first compound 1 µM) 36.5% | viability, T/C (second compound 10 µM, first compound 3.16 µM) 39.9% | viability, T/C (second compound 10 µM, first compound 10 µM) 35.5%

CC(CO)NC(=O)c1cc(-c2ccc(Cl)cc2)nn(-c2cnn(C)c2)c1=O (centres undefined)
inactive: viability, T/C (compound 0.0316 µM) 84.6% and 120% | viability, T/C (compound 0.1 µM) 80.5% and 91.3% | viability, T/C (compound 0.316 µM) 95.9% and 96.8% | viability, T/C (compound 1 µM) 81% and 88.2% | viability, T/C (compound 3.16 µM) 87.7% and 101% | viability, T/C (compound 10 µM) 115% and 117%
> 10 µM: IC50 (curve of compound)
